The values that follow come from US9403801B2 (Calitor Sciences, LLC, priority 2014, dated 2016).

A short description of series [1]: Compound stability in human liver microsomes. The class given is in vitro ADME. The following applies: for half-life at 5 μM: compound 5 μM, NADPH 1.0 mM, 37° C.; for CLint scaled at 5 μM: in vivo CLint extrapolated. As for the experimental part:
(§1) Human or rat liver microsomes incubations were conducted in duplicate in polypropylene tubes. The typical incubation mixtures consisted of human or rat liver microsomes (0.5 mg protein/mL), compounds of interest (5 μM) and NADPH (1.0 mM) in a total volume of 200 μL potassium phosphate buffer (PBS, 100 mM, pH 7.4). Compounds were dissolved in DMSO and diluted with PBS such that the final concentration of DMSO was 0.05%. The enzymatic reactions were commenced with the addition of protein after a 3-min preincubation and incubated in a water bath open to the air at 37° C. Reactions were terminated at various time points (0, 5, 10, 15, 30, 60 min) by adding equal volume of ice-cold acetonitrile. The samples were stored at −80° C. until LC/MS/MS assays.
(§2) The concentrations of compounds in the incubation mixtures of human or rat liver microsomes were determined by a LC/MS/MS method. The ranges of the linearity in the concentration range were determined for each tested compounds.
(§3) A parallel incubation was performed using denatured microsomes as the negative control, and reactions were terminated at various time points (0, 15, 60 min) after incubation at 37° C.
(§4) Dextromethorphan (70 μM) was selected as the positive control, and reactions were terminated at various time points (0, 5, 10, 15, 30, 60 min) after incubation at 37° C. Both positive and negative control samples were included in each assay to ensure the integrity of the microsomal incubation system.
(§5) The concentrations of compounds in human or rat liver microsome incubations were plotted as a percentage of the relevant zero time point control for each reaction. The in vivo CLint were extrapolated (ref.: Naritomi, Y.; Terashita, S.; Kimura, S.; Suzuki, A.; Kagayama, A.; and Sugiyama, Y.; Prediction of human hepatic clearance from in vivo animal experiments and in vitro metabolic studies with liver microsomes from animals and humans. Drug Metab. Dispos., 2001, 29: 1316-1324).

Series [2] in a line: Compound stability in rat liver microsomes. The class given is in vitro ADME. The following applies: for half-life at 5 μM: compound 5 μM, NADPH 1.0 mM, 37° C.; for CLint scaled at 5 μM: in vivo CLint extrapolated. Here is the method: as §1, §2, §3, §4, §5
Series [3] can be described thus: Pharmacokinetics after intravenous and oral administration in rats. Type of series: in vivo. The following applies: for Clearance (CL) after iv dosing / AUC(0-t) / half-life / Vd: dose 1 mg/kg (Ex. 27: 0.72 mg/kg), iv dosing; for F: oral bioavailability; for AUC(0-t) / half-life / Vd: rat, plasma; for Vd: read-out: Vss. Here is the method: The LC/MS/MS system used in the analysis consists of an Agilent 1200 Series vacuum degasser, binary pump, well-plate autosampler, thermostatted column compartment, the Agilent G6430 Triple Quadrupole Mass Spectrometer with an electrosprayionization (ESI) source. Quantitative analysis was carried out using MRM mode. The parameters for MRM transitions are in the Table A.
An Agilent XDB-C18, 2.1×30 mm, 3.5 μM column was used for the analysis. 5 μL of the samples were injected. Analysis condition: The mobile phase was 0.1% formic acid in water (A) and 0.1% formic acid in methanol (B). The flow rate was 0.4 mL/min. And the gradient of Mobile phase was in the Table B.
Alternatively, an Agilent 6330 series LC/MS/MS spectrometer equipped with G1312A binary pumps, a G1367A autosampler and a G1314C UV detector were used in the analysis. An ESI source was used on the LC/MS/MS spectrometer. The analysis was done in positive ion mode as appropriate and the MRM transition for each analyte was optimized using standard solution. A Capcell MP-C18 100×4.6 mm I.D., […] column (Phenomenex, Torrance, Calif., USA) was used during the analysis. The mobile phase was 5 mM ammonia acetate, 0.1% MeOH in water (A): 5 mM ammonia acetate, 0.1% MeOH in acetonitrile (B) (70:30, v/v). The flow rate was 0.6 mL/min. Column was maintained at ambient temperature. 20 μL of the samples were injected.
The compounds disclosed herein are assessed in pharmacokinetic studies in mice, rats, dogs or monkeys. The compounds are administered as a water solution, 2% HPMC+1% TWEEN®80 in water solution, 5% DMSO+5% solution in saline, 4% MC suspension or capsule. For the intravenous administration, the animals are generally given at 1 or 2 mg/kg dose. For the oral (p.o.) dosing, mice and rats are generally given 5 or 10 mg/kg dose, and dogs and monkeys are generally given 10 mg/kg dose. The blood samples (0.3 mL) are drawn at 0.25, 0.5, 1.0, 2.0, 3.0, 4.0, 6.0, 8.0, 12 and 24 h time points or 0.083, 0.25, 0.5, 1.0, 2.0, 4.0, 6.0, 8.0 and 24 h time points and centrifuged at 3,000 or 4000 rpm for 2 to 10 min. The plasma solutions are collected, and stored at −20° C. or −70° C. until analyzed by LC/MS/MS as described above.

Series [4] deals with JAK1 (h) (Homo sapiens (Human), UniProt P23458). Nature of the series: JAK1 kinase assay (33P-ATP filter binding, Millipore). The class given is biochemical. As for the experimental part: Kinase assays can be performed by measurement of incorporation of γ-^33P ATP into immobilized myelin basic protein (MBP). High binding white 384 well plates (Greiner) are coated with MBP (Sigma #M−1891) by incubation of 60 μL/well of 20 μg/mL MBP in Tris-buffered saline (TBS; 50 mM Tris pH 8.0, 138 mM NaCl, 2.7 mM KCl) for 24 h at 4° C. Plates are washed 3× with 100 μL TBS. Kinase reactions are carried out in a total volume of 34 μL in kinase buffer (5 mM Hepes pH 7.6, 15 mM NaCl, 0.01% bovine gamma globulin (Sigma #I-5506), 10 mM MgCl2, 1 mM DTT, 0.02% TritonX-100). Compound dilutions are performed in DMSO and added to assay wells to a final DMSO concentration of 1%. Each data point is measured in duplicate, and at least two duplicate assays are performed for each individual compound determination. Enzyme is added to final concentrations of 10 nM or 20 nM, for example. A mixture of unlabeled ATP and γ-^33P ATP is added to start the reaction (2×10^6 cpm of γ-^33P ATP per well (3000 Ci/mmole) and 10 μM unlabeled ATP, typically. The reactions are carried out for 1 h at room temperature with shaking. Plates are washed 7× with TBS, followed by the addition of 50 μL/well scintillation fluid (Wallac). Plates are read using a Wallac Trilux counter. This is only one format of such assays; various other formats are possible, as known to one skilled in the art.
The above assay procedure can be used to determine the IC50 for inhibition and/or the inhibition constant, Ki. The IC50 is defined as the concentration of compound required to reduce the enzyme activity by 50% under the condition of the assay. The IC50 value is estimated by preparing a 10 point curve using a 1/2 log dilution series (for example, a typical curve may be prepared using the following compound concentrations: 3 μM, 1 μM, 0.3 μM, 0.1 μM, 0.03 μM, 0.01 μM, 0.003 μM, 0.001 μM, 0.0003 μM and 0 μM).
The kinase assays described herein were performed at Millipore UK Ltd, Dundee Technology Park, Dundee DD2 1SW, UK.

The mark [5] stands for this setting: pH 7.4, Human liver microsomes 0.5 mg protein/mL.
The mark [6] stands for this setting: pH 7.4, Rat liver microsomes 0.5 mg protein/mL.
Where [7] appears, read: human, liver microsomes, pH 7.4, Human liver microsomes 0.5 mg protein/mL.
Setting [8] is: human, liver microsomes, pH 7.4, Human liver microsomes.
Where [9] appears, read: rat, liver microsomes, pH 7.4, Rat liver microsomes 0.5 mg protein/mL.
The mark [10] stands for this setting: rat, liver microsomes, pH 7.4, Rat liver microsomes.

JAK1 (h), sequence (P23458 whole entry): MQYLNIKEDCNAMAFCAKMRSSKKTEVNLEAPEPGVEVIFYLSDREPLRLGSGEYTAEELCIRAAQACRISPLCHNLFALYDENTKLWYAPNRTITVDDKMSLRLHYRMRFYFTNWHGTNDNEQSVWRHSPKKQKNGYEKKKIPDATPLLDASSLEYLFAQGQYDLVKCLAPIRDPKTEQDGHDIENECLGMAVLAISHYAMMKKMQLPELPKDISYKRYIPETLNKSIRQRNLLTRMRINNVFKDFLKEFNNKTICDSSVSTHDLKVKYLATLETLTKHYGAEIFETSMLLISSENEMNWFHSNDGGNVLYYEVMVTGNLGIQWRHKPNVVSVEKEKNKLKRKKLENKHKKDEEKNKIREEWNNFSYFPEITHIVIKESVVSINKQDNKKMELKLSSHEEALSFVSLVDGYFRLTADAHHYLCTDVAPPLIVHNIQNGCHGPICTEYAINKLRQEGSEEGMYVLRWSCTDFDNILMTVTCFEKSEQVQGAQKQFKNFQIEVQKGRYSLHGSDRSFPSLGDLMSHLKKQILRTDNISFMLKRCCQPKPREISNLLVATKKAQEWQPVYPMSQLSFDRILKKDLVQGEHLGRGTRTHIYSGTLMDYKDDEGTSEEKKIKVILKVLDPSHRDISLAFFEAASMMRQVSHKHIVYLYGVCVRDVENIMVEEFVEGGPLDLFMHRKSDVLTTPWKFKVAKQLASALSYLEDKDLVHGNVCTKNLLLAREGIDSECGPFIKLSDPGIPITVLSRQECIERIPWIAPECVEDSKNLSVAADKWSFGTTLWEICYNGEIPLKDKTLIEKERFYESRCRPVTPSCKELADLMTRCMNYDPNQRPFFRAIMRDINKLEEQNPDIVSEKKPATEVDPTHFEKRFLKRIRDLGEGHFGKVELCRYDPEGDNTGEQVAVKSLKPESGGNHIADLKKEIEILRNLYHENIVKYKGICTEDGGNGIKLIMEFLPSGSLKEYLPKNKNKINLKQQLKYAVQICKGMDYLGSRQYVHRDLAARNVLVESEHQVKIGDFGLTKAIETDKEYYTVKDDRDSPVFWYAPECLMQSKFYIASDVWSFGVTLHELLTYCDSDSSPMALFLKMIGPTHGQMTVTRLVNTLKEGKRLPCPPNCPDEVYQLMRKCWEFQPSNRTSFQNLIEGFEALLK

Take `Cn1cc(Nc2ncc(C#N)c(NC3CC4CN(C(=O)CC#N)CC4C3)n2)cn1` (stereo not drawn) [Ex. 67, 4-((2-(2-cyanoacetyl)octahydrocyclopenta[c]pyrrol-5-yl)amino)-2-((1-methyl-1H-pyrazol-4-yl)amino)pyrimidine-5-carbonitrile]: the half-life at 5 μM in series [1] (setting [5]) stood at 4.93 h; in series [2] (setting [6]) it was 0.44 h. The CLint scaled at 5 μM in series [1] (pH 7.4, Human liver microsomes) is 5.87 mL/min/kg; in series [2] (pH 7.4, Rat liver microsomes), 94.1 mL/min/kg.

Consider `Cc1cnc(Nc2cnn(C)c2)nc1N(C)C1CCC2(CC1)CCN(C(=O)CC#N)CC2` [Ex. 23, 3-(9-(methyl(5-methyl-2-((1-methyl-1H-pyrazol-4-yl)amino)pyrimidin-4-yl)amino)-3-azaspiro[5.5]undecan-3-yl)-3-oxopropanenitrile], for which the half-life at 5 μM in series [1] (setting [7]) was determined as 2.09 h; in series [2] (setting [9]) it was 0.075 h. Also, the intrinsic clearance (CLint scaled) at 5 μM in series [1] (setting [8]) was 13.9 mL/min/kg; in series [2] (setting [10]), 552 mL/min/kg.

With `CC(=O)N1CC2CC(Nc3nc(Nc4cc(C5CC5)[nH]n4)ncc3Cl)CC2C1` (stereo not drawn) [Ex. 53, 1-(5-((5-chloro-2-((5-cyclopropyl-1H-pyrazol-3-yl)amino)pyrimidin-4-yl)amino)hexahydrocyclopenta[c]pyrrol-2(1H)-yl)ethanone], in series [3], the “Clearance (CL) after iv dosing” value was 55.2 mL/min/kg, the F is listed as 33.0%, the AUC(0-t) came out at 296 ng·h/mL and the half-life was 1.02 h. The Vd in series [3] was 2.46 L/kg. In series [1] (setting [5]), the half-life at 5 μM is 4.44 h. Moreover, the CLint scaled at 5 μM in series [1] (pH 7.4, Human liver microsomes) was 6.53 mL/min/kg. Besides, the half-life at 5 μM in series [2] (setting [6]) is 0.385 h. Moreover, in series [2] (pH 7.4, Rat liver microsomes), the CLint scaled at 5 μM was 108 mL/min/kg.

Take `Cc1nn(C)cc1Nc1ncc(Cl)c(NC2CCC3(CC2)CCN(C(=O)CC#N)CC3)n1` [Ex. 57, 3-(9-((5-chloro-2-((1,3-dimethyl-1H-pyrazol-4-yl)amino)pyrimidin-4-yl)amino)-3-azaspiro[5.5]undecan-3-yl)-3-oxopropanenitrile]: the IC50 in series [4] stood at 0.016 µM.

As to `N#CCC(=O)N1CCC2(CCC(Nc3nc(Nc4cc(C5CC5)[nH]n4)ncc3Cl)CC2)CC1` [Ex. 54, 3-(9-((5-chloro-2-((5-cyclopropyl-1H-pyrazol-3-yl)amino)pyrimidin-4-yl)amino)-3-azaspiro[5.5]undecan-3-yl)-3-oxopropanenitrile], the half-life at 5 μM worked out at 0.647 h in series [1] (setting [7]) and 0.527 h in series [2] (setting [9]). Further, the CLint scaled at 5 μM is 44.8 mL/min/kg in series [1] (setting [8]) and 78.6 mL/min/kg in series [2] (setting [10]).

As to `CN(c1nc(Nc2cnn(C)c2)ncc1Cl)C1CCC2(CCNC2)CC1` (single isomer, unassigned) [Ex. 3.10A, 5-chloro-N^4-methyl-N^2-(1-methyl-1H-pyrazol-4-yl)-N^4-(2-azaspiro[4.5]decan-8-yl)pyrimidine-2,4-diamine], in series [3], the “Clearance (CL) after iv dosing” value was 70.2 mL/min/kg, the F is recorded as 19.06%, the AUC(0-t) amounted to 216 ng·h/mL and the half-life is 2.72 h. In addition, the Vd in series [3] worked out at 13.5 L/kg. The molecule also returned a half-life at 5 μM in series [1] (setting [7]) of 5.24 h. For the same molecule, the CLint scaled at 5 μM in series [1] (setting [8]) is 5.53 mL/min/kg. Further, the half-life at 5 μM in series [2] (setting [9]) was determined as 0.213 h. In addition, in series [2] (setting [10]), the CLint scaled at 5 μM is 194 mL/min/kg.

Take `Cn1cc(Nc2nccc(NC3CCC4(CC3)CCN(C(=O)CC#N)C4)n2)cn1` (stereo not drawn) [Ex. 6, 3-(8-((2-((1-methyl-1H-pyrazol-4-yl)amino)pyrimidin-4-yl)amino)-2-azaspiro[4.5]decan-2-yl)-3-oxopropanenitrile]: the IC50 in series [4] came to 0.055 µM.

Molecule `CC(=O)N1CC2CC(Nc3nc(Nc4cnn(C)c4)ncc3C)CC2C1` (stereo not drawn) [Ex. 61, 1-(5-((5-methyl-2-((1-methyl-1H-pyrazol-4-yl)amino)pyrimidin-4-yl)amino)hexahydrocyclopenta[c]pyrrol-2(1H)-yl)ethanone] displayed an IC50 in series [4] of 0.042 µM.

For `CN(c1ccnc(Nc2cnn(C)c2)n1)C1CNCC12CCCC2` (stereo not drawn) [Ex. 1, N^4-methyl-N^2-(1-methyl-1H-pyrazol-4-yl)-N^4-(2-azaspiro[4.4]nonan-4-yl) pyrimidine-2,4-diamine], in series [3], the “Clearance (CL) after iv dosing” value turned out to be 157 mL/min/kg, the F was determined as 44.39%, the AUC(0-t) came to 103 ng·h/mL and the half-life is 3.77 h. For the same molecule, in series [3], the Vd worked out at 40.3 L/kg. The molecule also gave a half-life at 5 μM in series [1] (setting [5]) of 3.05 h. For the same molecule, in series [1] (pH 7.4, Human liver microsomes), the intrinsic clearance (CLint scaled) at 5 μM is 9.49 mL/min/kg. In series [2] (setting [6]), this molecule registered a half-life at 5 μM of 4.49 h. In addition, in series [2] (pH 7.4, Rat liver microsomes), the CLint scaled at 5 μM is 9.23 mL/min/kg.

Regarding `COc1cnc(Nc2cc(C3CC3)[nH]n2)nc1NC1CC2CN(C(=O)CC#N)CC2C1` (stereo not drawn) [Ex. 52, 3-(5-((2-((5-cyclopropyl-1H-pyrazol-3-yl)amino)-5-methoxypyrimidin-4-yl)amino)hexahydrocyclopenta[c]pyrrol-2(1H)-yl)-3-oxopropanenitrile], in series [3], the “Clearance (CL) after iv dosing” value was 84.2 mL/min/kg, the F came to 16.5%, the AUC(0-t) amounted to 197 ng·h/mL and the half-life was 0.32 h. The Vd in series [3] came to 1.6 L/kg. The same molecule gave a half-life at 5 μM in series [1] (setting [5]) of 1.14 h. The CLint scaled at 5 μM in series [1] (pH 7.4, Human liver microsomes) is 25.4 mL/min/kg. The half-life at 5 μM in series [2] (setting [6]) stood at 0.267 h. Also, in series [2] (pH 7.4, Rat liver microsomes), the CLint scaled at 5 μM is 155 mL/min/kg.

Broadly, the half-life is the time needed for the level to fall by half in the phase considered. Read a low half-life as fast loss. The CLint scaled is the capacity of the preparation to metabolise the compound, expressed as a volume cleared per time. As usually defined, the AUC(0-t) is exposure summed from dosing to a finite time, without extrapolation to infinity. The low end stands for less exposure, the high end for more exposure. One may read the IC50 as the midpoint of a concentration-inhibition curve. Lower therefore signals greater potency in that assay.
